The nature of data set [1]: Inhibition of urease (unknown origin) assessed as reduction on ammonia production incubated for 15 mins by indophenol reagent based microplate reader assay.
The nature of data set [2]: Inhibition of urease (unknown origin) incubated for 30 mins by microplate reader based analysis.
For data set [3], the system named is Klebsiella pneumoniae. Nature of the data set: Antibacterial activity against Klebsiella pneumoniae ATCC 700603 incubated for 18 to 24 hrs by broth microdilution assay. The settings on record: time 18-24 hrs. In kind it is functional.
The subject of a further data set is Proteus vulgaris. Put plainly: Antibacterial activity against Proteus vulgaris ATCC 13315 incubated for 18 to 24 hrs by broth microdilution assay. In kind it is functional. Conditions: time 18-24 hrs; call rule not given here.
Data set [4] deals with Klebsiella pneumoniae. Nature of the data set: Antibacterial activity against clinical isolate Klebsiella pneumoniae incubated for 18 to 24 hrs by broth microdilution assay. The settings on record: time 18-24 hrs. It counts as functional.
For another data set, the system named is Escherichia coli. Nature of the data set: Antibacterial activity against Escherichia coli incubated for 24 to 48 hrs. It counts as functional. The settings on record: time 24-48 hrs.
Another data set deals with Proteus mirabilis. Put plainly: Antibacterial activity against clinical isolate Proteus mirabilis incubated for 18 to 24 hrs by broth microdilution assay. In kind it is functional. Conditions: time 18-24 hrs. For orientation: Dilution methods test growth across graded concentrations, often in twofold steps.
Data set [5] in a line: Drug uptake in Swiss albino muscle infected mouse kidney measured upto 180 mins. It counts as ADME, tissue-based. Conditions: in vivo, 3 h.
Data set [6] can be described thus: Biodistribution in Swiss albino muscle infected mouse assessed as ratio of infected muscle to normal muscle measured at all time intervals. The settings on record: in vivo. It counts as ADME, organism-based, Muscle tissue.
A short description of data set [7]: Biodistribution in Swiss albino muscle infected mouse assessed as ratio of infected muscle to normal muscle measured after 30 mins post injection. Conditions: in vivo, 0.5 h. It counts as ADME, organism-based, Muscle tissue.

One may read the IC50 as the concentration at which inhibition is half-maximal. The term MIC denotes the lowest concentration that inhibits growth of the organism.

Converted amounts (≈) assume the structure as drawn.

With `NC(N)=S` [THIOUREA], the concentration for half-maximal inhibition (IC50) was at most 21.1 µM in data set [1] and 20 µM in [2].
Molecule `O=C(CC1C(=O)NC(=S)NC1=O)Nc1ccccc1` registered an IC50 in data set [2] of 20.8 µM.
For the molecule `CCN1C(=O)C(C(c2ccccc2)C2C(=O)N(CC)C(=S)N(CC)C2=O)C(=O)N(CC)C1=S`, in [1], the concentration for half-maximal inhibition (IC50) stood at 7.45 µM.
In data set [2], `CCOC(=O)CC1C(=O)NC(=S)NC1=O` showed an IC50 of 10.1 µM. Also, the MIC amounted to 62.5 µg/mL (≈ 271 µM) in the data set on Klebsiella pneumoniae [3], 31.2 µg/mL (≈ 136 µM) with Proteus vulgaris and 31.2 µg/mL (≈ 136 µM) against Klebsiella pneumoniae [4].
As for `O=C(CC1C(=O)NC(=S)NC1=O)N/N=C/c1ccccc1`, in [2], the IC50 was 54.4 µM.
`NNC(=O)CC1C(=O)NC(=S)NC1=O` returned a concentration for half-maximal inhibition (IC50) in data set [2] of 60.3 µM. 125 µg/mL (≈ 578 µM) was the least that counted as inhibitory in the data set with Klebsiella pneumoniae [3] (MIC).
In turn, `Cc1cccc(NC(=O)CC2C(=O)NC(=S)NC2=O)c1` showed an IC50 in data set [2] of 76.5 µM.
On the same count and under the same terms, under `Cc1ccc(/C=N/NC(=O)CC2C(=O)NC(=S)NC2=O)cc1` stands 67.7 µM.
Molecule `O=C1C(C(=O)C(F)(F)F)C(=O)N(c2ccc(-c3ncc(-c4ccccc4)[nH]3)cc2)C(=S)N1c1ccc(Cl)cc1` (stereo unspecified) displayed a minimal inhibitory concentration (MIC) in the data set with Escherichia coli of at most 6.25 µg/mL.
For `Cc1ccccc1NC(=O)CC1C(=O)NC(=S)NC1=O`, it took 52.1 µM to reach half-maximal inhibition in [2] (IC50).
`O=C(CC1C(=O)NC(=S)NC1=O)NCCNC(=O)CC1C(=O)NC(=S)NC1=O`: in data set [2], the concentration for half-maximal inhibition (IC50) is 29.8 µM. The MIC against Klebsiella pneumoniae [4] came to 62.5 µg/mL (≈ 146 µM).
`O=C(CC1C(=O)NC(=S)NC1=O)N/N=C/c1ccccc1O` gave an IC50 in [2] of 92.9 µM.
On the same count and under the same terms, under `CCCNC(=O)CC1C(=O)NC(=S)NC1=O` stands 11 µM.
Take `CC(C)CNC(=O)CC1C(=O)NC(=S)NC1=O`: it took 16.9 µM to reach half-maximal inhibition in [2] (IC50).
Consider `O=C(CC1C(=O)NC(=S)NC1=O)Nc1ccc(F)cc1`, for which inhibition in [2] was half-maximal at 44.3 µM (IC50).
On the same count and under the same terms, under `Cc1ccc(NC(=O)CC2C(=O)NC(=S)NC2=O)c(C)c1` stands 75.4 µM.
On the same count and under the same terms, under `Cc1cccc(NC(=O)CC2C(=O)NC(=S)NC2=O)c1C` stands 71 µM.
`CCOC(=O)/C(=C\N(C)C)C1C(=O)NC(=S)NC1=O` displayed an IC50 in data set [2] of 13.6 µM. Also, the minimal inhibitory concentration (MIC) against Klebsiella pneumoniae [3] was determined as 31.2 µg/mL (≈ 110 µM); against Proteus mirabilis, 15 µg/mL (≈ 52.6 µM); with Klebsiella pneumoniae [4] it was 62.5 µg/mL (≈ 219 µM).
`NC(=O)NNC(=O)CC1C(=O)NC(=S)NC1=O`: the IC50 in data set [2] came out at 27.1 µM. Further, the minimum inhibitory concentration (MIC) against Klebsiella pneumoniae [3] amounted to 31.2 µg/mL (≈ 121 µM); with Proteus vulgaris it was 16 µg/mL (≈ 61.7 µM); in the data set on Klebsiella pneumoniae [4] it was 62.5 µg/mL (≈ 241 µM).
For `COC(=O)c1ccc(NC(=O)CC2C(=O)NC(=S)NC2=O)cc1`, inhibition in [2] was half-maximal at 22.9 µM (IC50).
For `O=C(CC1C(=O)NC(=S)NC1=O)OCc1ccccc1`, the IC50 in data set [2] came to 74.7 µM. This molecule returned an MIC against Klebsiella pneumoniae [3] of 125 µg/mL (≈ 428 µM).
In the case of `O=C1NC(=S)NC(=O)C1CC(=O)N1CCOCC1`, the Drug uptake entry in data set [5] was “Active”. The Ratio in data set [6] was above 1; in data set [7], 3.72. The same molecule yielded a half-maximal inhibitory concentration (IC50) in data set [2] of 8.21 µM. Moreover, the MIC in the data set with Klebsiella pneumoniae [3], in the data set with Proteus mirabilis, with Proteus vulgaris and with Klebsiella pneumoniae [4] was 62.5 µg/mL (≈ 230 µM) throughout.
Turning to `CC1=C(C(=O)O)N2C(=O)[C@@H](NC(=O)[C@H](N)c3ccccc3)[C@H]2SC1` [CEPHALEXIN ANHYDROUS], the MIC is 125 µg/mL (≈ 360 µM) against Klebsiella pneumoniae [3], 125 µg/mL (≈ 360 µM) against Proteus mirabilis, 125 µg/mL (≈ 360 µM) with Proteus vulgaris and above 250 µg/mL against Klebsiella pneumoniae [4].
